Results published in paper PMC3525729 (Bioorganic & medicinal chemistry letters, 2012).
Positions count from the first letter of the chain named.

Assays:
rM2 = biological target: T1, rM2 (Rattus norvegicus, UniProt P10980); assay: CRC screened as antagonist in presence of ACh EC80, rM2; assay type: cell-based; details: antagonist mode
T1 sequence (P10980 1-466): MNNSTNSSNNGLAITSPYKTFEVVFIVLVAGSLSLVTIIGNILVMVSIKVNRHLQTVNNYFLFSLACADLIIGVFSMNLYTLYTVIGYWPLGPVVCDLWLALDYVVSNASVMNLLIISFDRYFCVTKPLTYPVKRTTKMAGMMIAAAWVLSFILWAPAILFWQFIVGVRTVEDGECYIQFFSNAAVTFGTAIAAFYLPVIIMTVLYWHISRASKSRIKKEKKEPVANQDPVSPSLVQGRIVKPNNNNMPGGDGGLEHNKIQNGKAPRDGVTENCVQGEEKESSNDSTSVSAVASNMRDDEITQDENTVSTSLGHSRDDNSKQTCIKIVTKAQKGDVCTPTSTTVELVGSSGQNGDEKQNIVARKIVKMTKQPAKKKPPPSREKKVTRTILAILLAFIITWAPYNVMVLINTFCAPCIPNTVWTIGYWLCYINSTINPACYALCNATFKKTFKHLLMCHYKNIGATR

hM2 = biological target: T2, hM2 (Homo sapiens, UniProt P08172); assay: Human CRC screened as antagonist, hM2; assay type: cell-based; details: ACh EC80
T2 sequence (P08172 1-466): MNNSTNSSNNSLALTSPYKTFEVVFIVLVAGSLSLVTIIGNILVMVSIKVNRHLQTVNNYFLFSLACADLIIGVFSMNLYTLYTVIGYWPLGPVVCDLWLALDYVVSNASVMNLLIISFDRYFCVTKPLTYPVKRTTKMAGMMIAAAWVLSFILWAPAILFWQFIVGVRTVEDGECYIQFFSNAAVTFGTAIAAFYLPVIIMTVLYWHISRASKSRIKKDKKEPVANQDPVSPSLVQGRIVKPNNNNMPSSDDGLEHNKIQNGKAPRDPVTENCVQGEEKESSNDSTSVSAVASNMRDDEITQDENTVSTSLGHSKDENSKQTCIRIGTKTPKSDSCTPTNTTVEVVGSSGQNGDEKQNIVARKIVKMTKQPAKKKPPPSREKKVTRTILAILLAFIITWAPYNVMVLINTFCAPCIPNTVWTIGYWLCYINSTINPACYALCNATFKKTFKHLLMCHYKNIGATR

hM1 = biological target: T3, hM1 (Homo sapiens, UniProt P11229); details: screened as agonist
T3 sequence (P11229 1-460): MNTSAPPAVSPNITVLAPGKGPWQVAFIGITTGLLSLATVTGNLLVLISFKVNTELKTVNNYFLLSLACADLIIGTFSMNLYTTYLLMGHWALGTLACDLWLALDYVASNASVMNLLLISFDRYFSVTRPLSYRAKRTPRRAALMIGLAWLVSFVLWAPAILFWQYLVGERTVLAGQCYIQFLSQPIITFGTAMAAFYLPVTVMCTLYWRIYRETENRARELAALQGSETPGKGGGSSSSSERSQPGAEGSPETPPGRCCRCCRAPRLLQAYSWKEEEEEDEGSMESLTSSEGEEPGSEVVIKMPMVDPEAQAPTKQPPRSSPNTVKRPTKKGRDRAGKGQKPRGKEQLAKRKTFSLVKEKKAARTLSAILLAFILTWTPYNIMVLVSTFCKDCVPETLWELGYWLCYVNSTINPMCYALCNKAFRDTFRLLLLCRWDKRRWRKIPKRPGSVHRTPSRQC

rM3 = rM3 (Rattus norvegicus, UniProt P08483); assay: CRC screened as antagonist in presence of ACh EC80, rM3; assay type: cell-based; details: antagonist mode
Chain of rM3 (P08483 whole entry): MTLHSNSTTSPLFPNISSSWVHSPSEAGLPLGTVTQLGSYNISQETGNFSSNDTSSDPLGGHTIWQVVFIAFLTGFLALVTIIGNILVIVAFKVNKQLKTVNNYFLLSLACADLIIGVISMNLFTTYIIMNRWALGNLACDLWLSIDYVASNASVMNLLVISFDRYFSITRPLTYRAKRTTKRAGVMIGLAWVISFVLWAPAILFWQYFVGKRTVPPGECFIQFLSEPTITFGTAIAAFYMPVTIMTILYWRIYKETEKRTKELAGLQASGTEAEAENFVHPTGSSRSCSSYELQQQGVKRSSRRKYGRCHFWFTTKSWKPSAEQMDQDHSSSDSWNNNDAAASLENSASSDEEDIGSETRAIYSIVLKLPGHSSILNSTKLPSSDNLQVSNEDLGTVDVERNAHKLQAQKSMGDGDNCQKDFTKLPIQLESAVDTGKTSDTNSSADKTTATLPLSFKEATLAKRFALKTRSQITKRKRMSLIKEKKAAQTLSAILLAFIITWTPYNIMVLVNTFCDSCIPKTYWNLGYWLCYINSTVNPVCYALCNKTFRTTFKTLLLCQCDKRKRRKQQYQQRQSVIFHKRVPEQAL

rM5 = biological target: T4, rM5 (Rattus norvegicus, UniProt P08911); assay: CRC screened in agonist mode, rM5; assay type: cell-based
T4 sequence (P08911 1-531): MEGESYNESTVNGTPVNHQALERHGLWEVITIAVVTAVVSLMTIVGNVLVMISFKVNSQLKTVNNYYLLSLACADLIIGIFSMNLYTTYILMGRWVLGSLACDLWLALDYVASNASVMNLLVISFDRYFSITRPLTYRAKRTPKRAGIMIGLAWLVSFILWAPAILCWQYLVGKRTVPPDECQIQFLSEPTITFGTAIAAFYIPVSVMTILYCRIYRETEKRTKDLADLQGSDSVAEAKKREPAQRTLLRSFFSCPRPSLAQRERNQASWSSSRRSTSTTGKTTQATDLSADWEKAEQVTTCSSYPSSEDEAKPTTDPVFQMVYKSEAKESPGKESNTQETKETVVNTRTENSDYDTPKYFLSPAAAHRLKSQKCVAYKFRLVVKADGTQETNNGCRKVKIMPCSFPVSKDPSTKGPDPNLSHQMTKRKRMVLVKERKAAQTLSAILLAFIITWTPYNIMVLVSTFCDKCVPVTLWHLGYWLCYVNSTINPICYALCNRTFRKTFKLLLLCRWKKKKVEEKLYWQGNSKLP

rM4 = biological target: T5, rM4 (Rattus norvegicus, UniProt P08485); assay: CRC screened as antagonist in presence of ACh EC80, rM4; assay type: cell-based
T5 sequence (P08485 1-478): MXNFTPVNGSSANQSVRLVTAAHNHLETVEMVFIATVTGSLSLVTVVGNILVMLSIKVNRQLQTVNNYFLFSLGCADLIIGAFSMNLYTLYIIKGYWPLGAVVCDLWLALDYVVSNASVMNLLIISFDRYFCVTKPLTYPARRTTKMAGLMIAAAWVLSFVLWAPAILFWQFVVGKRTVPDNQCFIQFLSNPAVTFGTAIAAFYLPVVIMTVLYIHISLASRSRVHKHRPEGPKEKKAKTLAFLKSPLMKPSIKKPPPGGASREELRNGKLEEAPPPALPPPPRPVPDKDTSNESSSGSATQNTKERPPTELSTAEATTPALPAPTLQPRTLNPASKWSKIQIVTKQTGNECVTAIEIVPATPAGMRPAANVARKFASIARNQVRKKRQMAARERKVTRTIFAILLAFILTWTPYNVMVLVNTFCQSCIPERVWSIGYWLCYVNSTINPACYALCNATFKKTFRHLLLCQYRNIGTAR

[1] = cited from earlier work
M1 = biological target: T6, M1 (Rattus norvegicus, UniProt P08482); assay: M1 agonist screen; assay type: cell-based; details: for M1 activation when screened as an agonist: agonist mode
T6 sequence (P08482 1-460): T3 sequence (P11229 1-460) with A5V, T254S, P309S, R320K, A337G, I413V

Rat M1 = biological target: T7, Rat M1 (Rattus norvegicus, UniProt P08482); assay: CRC screened as antagonist in presence of ACh EC80, Rat M1; assay type: cell-based; details: antagonist mode
T7 sequence (P08482 1-460): T3 sequence (P11229 1-460) with A5V, T254S, P309S, R320K, A337G, I413V

M4 = biological target: T8, M4 (Homo sapiens, UniProt P08173); assay: M4 antagonist screen; assay type: cell-based
T8 sequence (P08173 1-479): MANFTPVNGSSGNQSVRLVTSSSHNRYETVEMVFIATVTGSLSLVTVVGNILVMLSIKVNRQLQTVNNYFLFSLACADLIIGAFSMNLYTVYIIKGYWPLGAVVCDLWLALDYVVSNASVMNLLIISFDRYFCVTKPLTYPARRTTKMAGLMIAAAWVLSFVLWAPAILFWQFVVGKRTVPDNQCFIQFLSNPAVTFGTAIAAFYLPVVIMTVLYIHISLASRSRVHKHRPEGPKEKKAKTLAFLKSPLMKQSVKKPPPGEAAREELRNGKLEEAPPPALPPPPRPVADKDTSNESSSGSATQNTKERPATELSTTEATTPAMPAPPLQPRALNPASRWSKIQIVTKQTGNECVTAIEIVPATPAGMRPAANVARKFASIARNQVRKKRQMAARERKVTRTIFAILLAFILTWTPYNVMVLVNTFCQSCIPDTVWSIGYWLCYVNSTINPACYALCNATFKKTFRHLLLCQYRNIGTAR

M5 = biological target: T9, M5 (Homo sapiens, UniProt P08912); assay: M5 antagonist screen; assay type: cell-based
T9 sequence (P08912 1-532): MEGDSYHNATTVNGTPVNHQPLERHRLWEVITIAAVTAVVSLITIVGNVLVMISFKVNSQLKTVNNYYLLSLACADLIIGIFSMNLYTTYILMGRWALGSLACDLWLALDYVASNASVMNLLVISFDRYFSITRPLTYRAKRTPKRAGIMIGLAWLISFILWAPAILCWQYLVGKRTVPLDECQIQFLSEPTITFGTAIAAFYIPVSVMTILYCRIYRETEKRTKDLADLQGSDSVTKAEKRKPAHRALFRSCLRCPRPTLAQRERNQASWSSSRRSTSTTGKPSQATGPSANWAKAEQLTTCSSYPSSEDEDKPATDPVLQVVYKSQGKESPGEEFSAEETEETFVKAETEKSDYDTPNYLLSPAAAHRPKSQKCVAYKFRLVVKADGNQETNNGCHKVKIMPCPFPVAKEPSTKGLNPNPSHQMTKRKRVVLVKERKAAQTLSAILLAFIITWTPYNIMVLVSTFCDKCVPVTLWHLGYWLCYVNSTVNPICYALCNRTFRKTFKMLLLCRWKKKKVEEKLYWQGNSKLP

In the case of Cc1ccccc1CN1CCC(N2CCC(n3c(=O)[nH]c4ccccc43)CC2)CC1 [TBPB], the “rM2 pIC50” value (rM2) is reported as 5.89, the “hM2 pIC50” value (hM2) is reported as 5.46 and the “hM1 % ACh Max” value (hM1) is reported as 40 % ACh Max. For the same compound, the “rM3 pIC50” value (rM3) was 5.26 and the EC50 (rM5) was greater than 30 µM.

With Cc1ccccc1CN1CCC(N2CCC(n3c(=O)[nH]c4ccccc43)C(F)C2)CC1 (stereo not shown) [compound 9] the IC50 (rM4) was greater than 10 µM, the “rM4 % ACh Max” value (rM4; antagonist mode, ACh EC80) was 26.6±3.4 % ACh Max and the “rM4 pIC50” value (rM4; antagonist mode, ACh EC80) was 5.29±0.09. For the same compound, the “pKa of the central piperidine nitrogen atom” value [1] was 9.4 and the “M1 activation when screened as an agonist” value (M1) was “neither 9 nor 10 elicited M1 activation”.

In the case of Cc1ccccc1CN1CCC(N2CC3CC(n4c(=O)[nH]c5ccccc54)CC3C2)CC1 (stereo not shown) [compound 10], the “Rat M1 % ACh Max” value (Rat M1) is reported as −1.07±1.3 % ACh Max, the “Rat M1 pIC50” value (Rat M1) is reported as 5.20±0.04 and the “M1 activation when screened as an agonist” value (M1) is reported as “neither 9 nor 10 elicited M1 activation”.

With CCOC(=O)N1CCC(N2CCC[C@@H](NC(=O)c3cccc(Br)c3)C2)CC1 [compound 14] the “M1 pEC50” value (M1) was 5.69±0.08.

Work on CCOC(=O)N1CCC(N2CCC[C@@H](NC(=O)c3ccc(C(F)(F)F)nc3)C2)CC1 [compound 16] yielded an IC50 (M4) greater than 10 µM and an IC50 (M5) greater than 10 µM.
